The values that follow come from patent US6492342B1, “Hygromycin A prodrugs” (Pfizer Inc., priority 1999, dated 2002).

The test system of this test is panel of bacterial strains. The test is described as follows: Microtiter tray MIC assay against a panel of bacterial strains (NCCLS). It is filed as cell-based. The conditions noted are these: microtiter trays, compounds dissolved in DMSO. The text has this: The assay, described below, employs conventional methodology and interpretation criteria and is designed to provide direction for chemical modifications that may lead to compounds with antibacterial activity against susceptible and drug-resistant organisms including, but not limited to, beta-lactam, macrolide and vancomycin resistance. In the assay, a panel of bacterial strains is assembled to include a variety of target pathogenic species, including representatives of antibiotic resistant bacteria. Use of this panel enables the chemical structure/activity relationship to be determined with respect to potency and spectrum of activity. The assay is performed in microtiter trays and interpreted according to Performance Standards for Antimicrobial Disk SusceDtibility Tests—Sixth Edition; Approved Standard, published by The National Committee for Clinical Laboratory Standards (NCCLS) guidelines; the minimum inhibitory concentration (MIC) is used to compare strains. Compounds are initially dissolved in dimethylsulfoxide (DMSO) as stock solutions.

The structures appear in SMILES notation.

As to `CC(=Cc1ccc(OC2OC(/C(C)=N/OCc3cccc(Cl)c3)C(O)C2O)c(OC(=O)C(C)(C)C)c1)C(=O)NC1C(O)C(O)C2OCOC2C1O` (stereo not shown) [Example 1], the “antibacterial activity in the microtiter assay (MIC)” value is listed as “exhibits antibacterial activity”.
